# According to patent US11603373B2, “TDO2 and IDO1 inhibitors” (Genentech, Inc., priority 2017, dated 2023):
# pEC50: −log10 of the molar value.
# Experiments:
# [1] = target: T1, TDO2 (SW48 cells, high TDO expressing cells) (Homo sapiens, UniProt P48775); assay: NFK GreenScreen cell assay, inhibition of TDO in SW48 cells; format: cell-based; conditions: read-out: TDO2 Cell Fluor EC50
# T1 construct: SW48 cells (high TDO expressing cells); endogenous in cells; host or cells: SW48 cells
# From the text: (§1) Cells are counted on a Vi-Cell (Beckman Coulter). […] The final DMSO concentration is 0.5%.
# [2] = target: T2, IDO1 (A172+IFNg cells, high IDO expressing cells) (Homo sapiens, UniProt P14902); assay: NFK GreenScreen cell assay, inhibition of IDO in A172+IFNg cells; format: cell-based; conditions: read-out: IDO cell Fluor EC50
# T2 construct: A172+IFNg cells (high IDO expressing cells); endogenous in cells; host or cells: A172 cells induced with 100 ng/ml IFNγ
# T2 sequence (P14902 whole entry): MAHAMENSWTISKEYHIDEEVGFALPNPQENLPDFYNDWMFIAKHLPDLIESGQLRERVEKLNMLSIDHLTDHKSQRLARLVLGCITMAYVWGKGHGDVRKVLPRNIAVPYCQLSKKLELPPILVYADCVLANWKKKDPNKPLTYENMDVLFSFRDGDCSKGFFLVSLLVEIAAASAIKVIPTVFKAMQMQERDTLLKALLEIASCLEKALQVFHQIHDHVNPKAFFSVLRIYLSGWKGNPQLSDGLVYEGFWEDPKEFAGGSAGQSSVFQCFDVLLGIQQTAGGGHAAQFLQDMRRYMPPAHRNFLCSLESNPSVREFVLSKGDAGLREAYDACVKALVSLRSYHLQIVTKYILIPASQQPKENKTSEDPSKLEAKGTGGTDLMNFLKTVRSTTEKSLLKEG
# From the text: as §1
# T1 sequence (P48775 whole entry): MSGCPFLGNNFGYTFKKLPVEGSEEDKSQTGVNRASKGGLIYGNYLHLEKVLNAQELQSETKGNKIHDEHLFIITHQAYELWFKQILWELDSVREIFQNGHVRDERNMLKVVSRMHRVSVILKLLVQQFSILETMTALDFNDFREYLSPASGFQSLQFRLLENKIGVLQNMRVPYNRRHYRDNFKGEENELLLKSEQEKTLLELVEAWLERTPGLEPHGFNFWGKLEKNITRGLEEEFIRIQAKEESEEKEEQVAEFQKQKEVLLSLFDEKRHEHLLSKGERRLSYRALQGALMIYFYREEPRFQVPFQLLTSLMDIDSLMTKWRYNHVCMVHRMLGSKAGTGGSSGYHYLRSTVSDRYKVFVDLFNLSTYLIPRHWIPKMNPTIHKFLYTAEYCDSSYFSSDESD
SMILES,pEC50 [1],pEC50 [2]
"CC(C(=O)N1CCC2(CC1)C[C@@H]([C@H]1c3ccccc3-c3cncn31)[C@H]2O)n1cncn1 (some centres unmarked) [compound 41, 1-[3-hydroxy-2-(5H-imidazo[1,5-b]isoindol-5-yl)-7-azaspiro[3.5]nonan-7-yl]-2-(1,2,4-triazol-1-yl)propan-1-one]",5.47,5.82
"CC(NC=O)C(=O)N1CCC2(CC1)CC(C1c3ccccc3-c3cncn31)C2O (centres unmarked) [compound 42, N-[2-[3-hydroxy-2-(5H-imidazo[1,5-b]isoindol-5-yl)-7-azaspiro[3.5]nonan-7-yl]-1-methyl-2-oxo-ethyl]formamide]",5.39,5.96
"Cn1ccc(S(=O)(=O)N2CCC3(CC2)CC(C2c4ccccc4-c4cncn42)C3O)n1 (centres unmarked) [compound 44, 2-(5H-imidazo[1,5-b]isoindol-5-yl)-7-(1-methylpyrazol-3-yl)sulfonyl-7-azaspiro[3.5]nonan-3-ol]",6.55,7.09
"COCCC(=O)N1CCC2(CC1)C[C@@H]([C@H]1c3ccccc3-c3cncn31)[C@H]2O [compound 47, 1-[3-hydroxy-2-(5H-imidazo[1,5-b]isoindol-5-yl)-7-azaspiro[3.5]nonan-7-yl]-3-methoxy-propan-1-one]",6.07,6.07
"CN(C)C(=O)CCC(=O)N1CCC2(CC1)CC(C1c3ccccc3-c3cncn31)C2O (centres unmarked) [compound 50, 4-[3-hydroxy-2-(5H-imidazo[1,5-b]isoindol-5-yl)-7-azaspiro[3.5]nonan-7-yl]-N,N-dimethyl-4-oxo-butanamide]",5.89,5.82
"Cc1cc(CC(=O)N2CCC3(CC2)C[C@@H]([C@H]2c4ccccc4-c4cncn42)[C@H]3O)no1 [compound 54, 1-[3-hydroxy-2-(5H-imidazo[1,5-b]isoindol-5-yl)-7-azaspiro[3.5]nonan-7-yl]-2-(5-methylisoxazol-3-yl)ethanone]",6.43,6.62
"Cn1cc(CCC(=O)N2CCC3(CC2)C[C@@H]([C@H]2c4ccccc4-c4cncn42)[C@H]3O)cn1 [compound 55, 1-[3-hydroxy-2-(5H-imidazo[1,5-b]isoindol-5-yl)-7-azaspiro[3.5]nonan-7-yl]-3-(1-methylpyrazol-4-yl)propan-1-one]",6.09,6.29
"O=C(OCC(F)F)N1CCC2(CC1)C[C@@H]([C@H]1c3ccccc3-c3cncn31)[C@H]2O [compound 57, 2,2-difluoroethyl (2S,3R)-3-hydroxy-2-[(5S)-5H-imidazo[1,5-b]isoindol-5-yl]-7-azaspiro[3.5]nonane-7-carboxylate]",6.59,7.06
"O=C(NCC(F)F)N1CCC2(CC1)C[C@@H]([C@H]1c3ccccc3-c3cncn31)[C@H]2O [compound 58, N-(2,2-difluoroethyl)-3-hydroxy-2-(5H-imidazo[1,5-b]isoindol-5-yl)-7-azaspiro[3.5]nonane-7-carboxamide]",6.47,6.46
"N#CC1(C(=O)N2CCC3(CC2)C[C@@H]([C@H]2c4ccccc4-c4cncn42)[C@H]3O)CC1 [compound 61, 1-[3-hydroxy-2-(5H-imidazo[1,5-b]isoindol-5-yl)-7-azaspiro[3.5]nonan-7-carbonyl]cyclopropanecarbonitrile]",6.33,6.92
"Cc1cc(CC(=O)N2CCC3(CC2)CC(C2c4ccccc4-c4cncn42)C3O)on1 (centres unmarked) [compound 63, 1-[3-hydroxy-2-(5H-imidazo[1,5-b]isoindol-5-yl)-7-azaspiro[3.5]nonan-7-yl]-2-(3-methylisoxazol-5-yl)ethanone]",6.51,6.80
"O=C(C(F)F)N1CCC2(CC1)CC(C1c3ccccc3-c3cncn31)C2O (centres unmarked) [compound 69, 2,2-difluoro-1-[3-hydroxy-2-(5H-imidazo[1,5-b]isoindol-5-yl)-7-azaspiro[3.5]nonan-7-yl]ethanone]",6.43,6.46

# Results, then the molecule that gave them:
pEC50 [1],pEC50 [2],SMILES
6.07,6.44,"O=C(C1CC1)N1CCC2(CC1)CC(C1c3ccccc3-c3cncn31)C2O (centres unmarked) [compound 43, cyclopropyl-[3-hydroxy-2-(5H-imidazo[1,5-b]isoindol-5-yl)-7-azaspiro[3.5]nonan-7-yl]methanone]"
5.68,5.62,"O=C(C1CCOCC1)N1CCC2(CC1)C[C@@H]([C@H]1c3ccccc3-c3cncn31)[C@H]2O [compound 45, [3-hydroxy-2-(5H-imidazo[1,5-b]isoindol-5-yl)-7-azaspiro[3.5]nonan-7-yl]-tetrahydropyran-4-yl-methanone]"
5.62,5.70,"O=C(C1CCOC1)N1CCC2(CC1)C[C@@H]([C@H]1c3ccccc3-c3cncn31)[C@H]2O (some centres unmarked) [compound 46, [3-hydroxy-2-(5H-imidazo[1,5-b]isoindol-5-yl)-7-azaspiro[3.5]nonan-7-yl]-tetrahydrofuran-3-yl-methanone]"
6.14,6.46,"O=C(C1CCC1)N1CCC2(CC1)C[C@@H]([C@H]1c3ccccc3-c3cncn31)[C@H]2O [compound 48, cyclobutyl-[3-hydroxy-2-(5H-imidazo[1,5-b]isoindol-5-yl)-7-azaspiro[3.5]nonan-7-yl]methanone]"
6.28,6.25,"CCC(=O)N1CCC2(CC1)CC(C1c3ccccc3-c3cncn31)C2O (centres unmarked) [compound 49, 1-[3-hydroxy-2-(5H-imidazo[1,5-b]isoindol-5-yl)-7-azaspiro[3.5]nonan-7-yl]propan-1-one]"
6.66,6.41,"O=C(CC1CCOCC1)N1CCC2(CC1)CC(C1c3ccccc3-c3cncn31)C2O (centres unmarked) [compound 51, 1-[3-hydroxy-2-(5H-imidazo[1,5-b]isoindol-5-yl)-7-azaspiro[3.5]nonan-7-yl]-2-tetrahydropyran-4-yl-ethanone]"
5.43,5.41,"O=C(CN1CCCC1=O)N1CCC2(CC1)C[C@@H]([C@H]1c3ccccc3-c3cncn31)[C@H]2O [compound 52, 1-[2-[3-hydroxy-2-(5H-imidazo[1,5-b]isoindol-5-yl)-7-azaspiro[3.5]nonan-7-yl]-2-oxo-ethyl]pyrrolidin-2-one]"
5.00,5.17,"CN1CC(C(=O)N2CCC3(CC2)CC(C2c4ccccc4-c4cncn42)C3O)CC1=O (centres unmarked) [compound 53, 4-[3-hydroxy-2-(5H-imidazo[1,5-b]isoindol-5-yl)-7-azaspiro[3.5]nonane-7-carbonyl]-1-methyl-pyrrolidin-2-one]"
6.10,6.18,"CC(=O)N1CCC2(CC1)C[C@@H]([C@H]1c3ccccc3-c3cncn31)[C@H]2O [compound 56, 1-[3-hydroxy-2-(5H-imidazo[1,5-b]isoindol-5-yl)-7-azaspiro[3.5]nonan-7-yl]ethanone]"
4.89,4.77,"NC(=O)N1CCCC(C(=O)N2CCC3(CC2)CC(C2c4ccccc4-c4cncn42)C3O)C1 (centres unmarked) [compound 64, 3-[3-hydroxy-2-(5H-imidazo[1,5-b]isoindol-5-yl)-7-azaspiro[3.5]nonane-7-carbonyl]piperidine-1-carboxamide]"
5.05,5.20,"O=C(C1CCS(=O)(=O)C1)N1CCC2(CC1)C[C@@H]([C@H]1c3ccccc3-c3cncn31)[C@H]2O (some centres unmarked) [compound 65, (1,1-dioxothiolan-3-yl)-[3-hydroxy-2-(5H-imidazo[1,5-b]isoindol-5-yl)-7-azaspiro[3.5]nonan-7-yl]methanone]"
4.85,4.89,"NC(=O)N1CCC(C(=O)N2CCC3(CC2)CC(C2c4ccccc4-c4cncn42)C3O)CC1 (centres unmarked) [compound 66, 4-[3-hydroxy-2-(5H-imidazo[1,5-b]isoindol-5-yl)-7-azaspiro[3.5]nonane-7-carbonyl]piperidine-1-carboxamide]"
5.24,5.47,"CC(=O)N1CCC(C(=O)N2CCC3(CC2)C[C@@H]([C@H]2c4ccccc4-c4cncn42)[C@H]3O)CC1 [compound 68, 1-[4-[3-hydroxy-2-(5H-imidazo[1,5-b]isoindol-5-yl)-7-azaspiro[3.5]nonane-7-carbonyl]-1-piperidyl]ethanone]"
